Results as given in paper PMC8216263 (Pharmaceutical Biology, 2021).

Key:
[1] = Single- and multiple-dose plasma pharmacokinetics of GA and PCA after oral RLQ in healthy subjects; assay type: in vivo, human; settings: LC-MS/MS after oral RLQ
Procedure: The study protocol was approved by the Ethics Committee of the Second Affiliated Hospital of Tianjin University of Traditional Chinese Medicine. […] Subjects were offered standard meals at 4 and 10 h after dosing. Water was not permitted during the hour before and the hour after dosing, except for 240 mL administered with dosing; additional water intake was allowed at all other times.
In the single-dose study, 8 g of RLQ was administered orally on day 1. A 7-d washout time was designed between single-dose and multiple-dose pharmacokinetic studies. In the multiple-dose study, subjects received multiple doses of RLQ (8 g, t.i.d.) for seven consecutive days from day 8 to day 14 and a single dose of RLQ (8 g) on the morning of day 15. […] Additional pre-dose samples were collected in the morning on days 12, 13 and 14. […] All samples were stored at −80 °C until analysis.
All analytes were extracted from plasma and urine samples by simple protein precipitation extraction method using acetonitrile. Briefly, 5 µL of internal standard solution and 300 μL of acetonitrile were added to the spiked blank matrix (100 μL) and vortexed for 3 min and then centrifuged at 13,000 × g for 10 min. The supernatant was transferred and dried using a flow of nitrogen. The residue was re-dissolved in 100 µL of 10% methanol solution containing 0.1% formic acid. An aliquot of 5 µL solution was injected into the LC-MS/MS system for analysis.
The chromatographic separation was performed on an Acquity Ultra Performance LC instrument (Waters, Milford, MA) with a gradient programme in an ACQUITY UPLC BEH C18 column (2.1 mm × 100 mm, 1.7 μm). […] The injection volume was 2 µL. The mass spectrometry analysis was performed on an AB Sciex Triple Quad 5500 MS (Framingham, MA) equipped with an ESI source.
The peak plasma concentration (Cmax) and time to reach the peak plasma concentration (Tmax) were calculated from the actual plasma concentration data. The area under the plasma concentration-time curve from zero to the last measurable concentration (AUC0–t) was calculated via the linear trapezoidal rule. AUC0–∞ was calculated using the following formula: AUC0–∞ = AUC0–t + Ct/ke, where Ct is the last plasma concentration measured. […] The accumulation index was calculated as AUCss/AUC0–t.

[2] = target: T1, BCRP (Homo sapiens, UniProt Q9UNQ0); design: method as in Ebert et al. 2006; settings: Caco-2 cells pre-treated with quercetin, ref Ebert et al. 2006; cited from earlier work
T1 sequence (Q9UNQ0 1-655): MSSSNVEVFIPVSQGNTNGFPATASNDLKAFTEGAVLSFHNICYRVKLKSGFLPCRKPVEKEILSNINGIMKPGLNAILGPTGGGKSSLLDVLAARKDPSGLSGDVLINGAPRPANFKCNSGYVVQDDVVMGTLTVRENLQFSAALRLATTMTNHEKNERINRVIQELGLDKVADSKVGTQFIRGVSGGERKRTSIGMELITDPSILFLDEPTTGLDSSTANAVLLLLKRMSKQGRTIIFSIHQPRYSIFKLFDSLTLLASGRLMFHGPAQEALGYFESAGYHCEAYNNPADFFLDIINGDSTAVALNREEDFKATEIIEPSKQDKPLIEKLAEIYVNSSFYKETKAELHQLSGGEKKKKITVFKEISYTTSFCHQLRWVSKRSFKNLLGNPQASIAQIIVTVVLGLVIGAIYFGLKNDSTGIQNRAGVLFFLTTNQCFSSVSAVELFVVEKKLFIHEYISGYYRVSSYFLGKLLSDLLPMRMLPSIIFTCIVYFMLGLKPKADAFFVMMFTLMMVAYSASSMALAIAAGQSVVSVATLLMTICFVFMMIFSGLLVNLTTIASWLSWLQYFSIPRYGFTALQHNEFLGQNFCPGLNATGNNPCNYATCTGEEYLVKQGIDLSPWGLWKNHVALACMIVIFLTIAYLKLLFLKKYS

response in human plasma and urine samples [1]	SMILES	apical transport of BCRP-mediated benzo(a)pyrene-3-sulphate [2]
little or no response	O=c1c(O)c(-c2ccc(O)cc2)oc2cc(O)cc(O)c12 [kaempferol]	
little or no response	O=c1c(O)c(-c2ccc(O)c(O)c2)oc2cc(O)cc(O)c12 [quercetin]	increase
